PubChem BioAssay (NCI)
Several values for one entry are separate records, joined by “and”; a condition that tells them apart may be missing. Identical values can stand only once.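 Test compounds were applied to cells in 96-well plates for 48 hours at 5 doses. Here, GI50 denotes the concentration required for 50% inhibition of growth. TGI: total growth inhibition.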

Key:
Experiment in all cases: NCI-60 cell line screen, 48 h
[1] = system: SK-OV-3 ovarian
[2] = system: UACC-257 melanoma
[3] = system: U251 CNS
[4] = system: CAKI-1 renal
[5] = system: MOLT-4 leukemia
[6] = system: SW-620 colon
[7] = system: SK-MEL-5 melanoma
[8] = system: SN12C renal

SMILES	GI50 [1]	TGI [1]	GI50 [2]	TGI [2]	GI50 [3]	TGI [3]	GI50 [4]	TGI [4]	GI50 [5]	TGI [5]	GI50 [6]	TGI [6]	GI50 [7]	TGI [7]	GI50 [8]	TGI [8]
O=C(NN1C(=O)CSC1c1cccc(Cl)c1)C(O)c1ccccc1 (stereo unspecified)	> 100 µM	> 100 µM	> 100 µM	> 100 µM	59.2 µM	> 100 µM	90.3 µM	> 100 µM	77.8 µM	> 100 µM	> 100 µM	> 100 µM	> 100 µM	> 100 µM	> 100 µM	> 100 µM
CC(=O)c1ccc2c(c1)N(CCCN1CCN(CCO)CC1)c1ccccc1S2	2.84 µM	10.1 µM	1.85 µM	3.51 µM	1.94 µM	4.06 µM	1.73 µM	4.22 µM	2.99 µM	8.86 µM	1.82 µM	3.61 µM	1.72 µM	3.14 µM	3.88 µM	17 µM
CC(=O)/C=C/c1ccc(Nc2c3ccccc3nc3occ(Cl)c23)cc1	8.21 µM	65.6 µM	1.24 µM	5.59 µM	2.33 µM	6.83 µM	0.159 µM	1.07 µM	2.69 µM	13.3 µM	–	–	–	–	3.29 µM	14.3 µM
CCCCCCNCCCNc1c2cc(OC)ccc2nc2cccc([N+](=O)[O-])c12	0.266 µM	4.94 µM and 0.961 µM	0.395 µM	1.4 µM and 1.47 µM	0.0407 µM	–	0.24 µM	0.797 µM and 0.748 µM	0.0514 µM	–	0.132 µM	4.19 µM and 1.3 µM	0.135 µM	2.01 µM and 0.279 µM	0.132 µM	0.421 µM and 0.343 µM
COc1cccc(CNc2ncnc3c2ncn3C2OC(CO)C(O)C2O)c1O (stereo unspecified)	0.179 µM	0.932 µM	1.91 µM	> 100 µM	0.522 µM	> 100 µM	0.0667 µM	–	0.353 µM	> 44 µM	0.159 µM	> 100 µM	1.43 µM	> 100 µM	0.045 µM	> 100 µM
CC(/C=C/C(O)=C1/C(=O)CNC1=O)=C\[C@@H](C)[C@H]1O[C@@]2(C)O[C@H](C(=O)[C@@H]3O[C@@]32C)[C@@H]1C	–	46.8 µM	–	35.6 µM	–	54.9 µM	–	57 µM	–	72.2 µM	–	> 100 µM	–	40.4 µM	–	47.3 µM
Cn1cc(-c2cc(-c3cn(C)c4ccc(Cl)cc34)[nH]n2)c2cc(Cl)ccc21	5.81 µM	> 100 µM	4.26 µM	34.2 µM	3.37 µM	12.9 µM	1.7 µM	6.05 µM	1.55 µM	11.8 µM	3.52 µM	14.6 µM	1.79 µM	3.6 µM	–	–
Nc1nc(N)c2cc(Sc3ccc4ccccc4c3)ccc2n1	–	17.5 µM	–	4.61 µM	–	3.38 µM	–	15.7 µM	–	5.51 µM	–	1.91 µM	–	2.24 µM	–	8.93 µM
Cc1cc(CCl)c(C)cc1CCl	4.92 µM	23 µM	2.15 µM	5.29 µM	1.47 µM	4.27 µM	0.358 µM	1.59 µM	0.573 µM	8.39 µM	1.34 µM	5.74 µM	4.19 µM	17.2 µM	0.605 µM	13.6 µM
C=C(CN1CCc2c([nH]c3ccccc23)C1)c1ccc(C(=O)Nc2ccccc2N)cc1	3.14 µM	11.6 µM	3.2 µM	11.6 µM	1.42 µM	7.73 µM	1.67 µM	8.25 µM	0.116 µM	0.405 µM	3.89 µM	28.5 µM	2.61 µM	6.88 µM	2.33 µM	9.98 µM
FC(F)(F)c1ccc(-c2nn3ncccc3c2-c2ccnc(Nc3ccc4c(c3)OCCO4)n2)cc1	9.08 µM	> 25 µM	7.23 µM	> 25 µM	14.1 µM	> 25 µM	4.86 µM	> 19.2 µM	6.11 µM	> 23.3 µM	> 25 µM	> 25 µM	6.42 µM	> 25 µM	9.77 µM	> 25 µM
CC(C)(C)[Si](C)(C)OC1[C@@H](CNC(N)=O)O[C@@H](n2cnc3c(NC(=O)Nc4ccccc4)ncnc32)[C@H]1O[Si](C)(C)C(C)(C)C (stereo partly specified)	3.29 µM	9.53 µM	5.36 µM	12.1 µM	1.89 µM	7.93 µM	1.76 µM	7.12 µM	1.06 µM	2.24 µM	0.981 µM	1.87 µM	6.82 µM	13.5 µM	0.916 µM	1.84 µM
COc1cc(F)ccc1-c1cc(Nc2cc(CS(C)(=N)=O)ccn2)ncc1F (stereo unspecified)	0.638 µM	> 100 µM	0.261 µM	> 100 µM	0.0683 µM	> 100 µM	0.0438 µM	> 100 µM	0.111 µM	0.985 µM	0.0559 µM	> 33.1 µM	0.0385 µM	14.3 µM	0.0583 µM	> 100 µM
COc1ccc(C2=NC(=O)NC2c2ccc(OC)cc2)cc1 (stereo unspecified)	19.9 µM	> 100 µM	36.3 µM	> 100 µM	7.85 µM	> 100 µM	2.51 µM	15.4 µM	1.2 µM	96.7 µM	4.65 µM	> 100 µM	3.29 µM	14.2 µM	15.4 µM	> 100 µM
O=[N+]([O-])c1cc([As](Br)c2ccc(O)c([N+](=O)[O-])c2)ccc1O	–	9.71 µM	–	3.33 µM	–	4.47 µM	–	3.42 µM	–	–	–	3.56 µM	–	3.1 µM	–	3.3 µM
ClCc1cccc(Cn2cnc3c(Cl)nc(Cl)nc32)c1	–	–	1.86 µM	3.45 µM	1.7 µM	3.09 µM	2.22 µM	5.85 µM	3.35 µM	> 100 µM	1.57 µM	3.5 µM	1.59 µM	3.05 µM	2.14 µM	4.66 µM
CCSc1ccc([C@@H]2[C@@H](O)C(=O)N2c2cc(OC)c(OC)c(OC)c2)cc1	0.0271 µM	38.1 µM	0.0877 µM	35 µM	< 0.0144 µM	16 µM	–	–	0.0384 µM	17.7 µM	< 0.0121 µM	> 100 µM	< 0.0118 µM	0.433 µM	0.0441 µM	22.2 µM
COc1ccc(-c2cnnn2-c2nonc2-n2cccc2)cc1OC	5.18 µM	29.8 µM	9.61 µM	> 100 µM	–	–	3.39 µM	> 100 µM	3.63 µM	> 100 µM	3.61 µM	> 100 µM	4.6 µM	21.1 µM	5.71 µM	> 100 µM
COc1cc(OC)c2sc(-c3ccc(-n4cncc4-c4ccc(OC)c(OC)c4)cc3)nc2c1	> 100 µM	> 100 µM	> 100 µM	> 100 µM	9.19 µM	> 100 µM	–	–	–	–	> 100 µM	> 100 µM	3.61 µM	> 100 µM	> 100 µM	> 100 µM
COc1ccc2c(c1)C(=O)/C(=C/c1cccc(OCC(=O)Nc3nc(C)c(C)s3)c1)O2	12.8 µM	25.6 µM	12.8 µM	26.3 µM	–	–	0.271 µM	1.16 µM	0.155 µM	0.369 µM	0.499 µM	1.86 µM	0.886 µM	2.81 µM	0.171 µM	2.66 µM
COc1ccc(C(=O)c2sc3nc(-c4ccccc4OC)ccc3c2N)cc1OC	30.6 µM	> 100 µM	6.05 µM	> 100 µM	14.2 µM	> 100 µM	27.6 µM	> 100 µM	–	–	> 100 µM	> 100 µM	2.05 µM	5.68 µM	7.95 µM	> 100 µM
NC(=O)c1cccnc1	> 100 µM	> 100 µM	> 100 µM	> 100 µM	> 100 µM	> 100 µM	> 100 µM	> 100 µM	> 100 µM	> 100 µM	> 100 µM	> 100 µM	–	–	> 100 µM	> 100 µM
Cc1cc(NCc2cc(Nc3ccnc4cc(Cl)ccc34)ccc2F)nc(N2CCOCC2)n1	1.7 µM	3.36 µM	–	–	1.95 µM	4.05 µM	1.52 µM	3.21 µM	2.95 µM	> 100 µM	1.81 µM	4.7 µM	–	–	1.84 µM	4.3 µM
CO[C@H]1/C=C/O[C@@]2(C)Oc3c(C)c(O)c4c(O)c(c(/C=N/N5CCN(C)CC5)c(O)c4c3C2=O)NC(=O)/C(C)=C\C=C\[C@H](C)[C@H](O)[C@@H](C)[C@@H](O)[C@@H](C)[C@H](OC(C)=O)[C@@H]1C	–	> 100 µM	–	> 100 µM	–	–	–	> 100 µM	–	> 100 µM	–	> 100 µM	–	> 100 µM	–	> 100 µM
